Laboratory results reported in US5854252A, “Dihalotriazolopyrimidine derivatives” (Shell Internationale Research Maatschappij B.V., priority 1993, dated 1998).
Converted amounts (≈) assume the structure as drawn.

Tests used:
Micronectriella nivalis = experiment: MIC by serial dilution, Example 55, Micronectriella nivalis; format: cell-based; details: microtitre plates, 20° C., 6-8 days
Experimental: (§1) The MIC (Minimum Inhibition Concentration)-values were determined by serial dilution tests using 48-well microtitre plates. The dilution of the test compounds in the nutrient solution and the distribution to the wells were carried out by a TECAN RSP 5000 robotic sample processor.
(§2) For preparation of the nutrient solution, V8 juice (Trade Mark) was neutralised with calcium carbonate and centrifuged. The supernatant was diluted with distilled water (1:5) to the final concentration.
(§3) The fungi (Alternaria solani, Botrytis cinerea, Pseudocercosporella herpotrichoides, Micronectriella nivalis, Gaeumannomyces graminis) were added into the wells as a droplet of spore suspension. The microtitre plates were then incubated at 20° C. for 6-8 days. The MIC-value, which was defined to be the lowest concentration in the dilution series without mycelial growth, was determined by visual inspection of the plates.

Gaeumannomyces graminis = experiment: MIC by serial dilution, Example 55, Gaeumannomyces graminis; format: cell-based; details: microtitre plates, 20° C., 6-8 days
Experimental: as §1, §2, §3

[1] = tested on: Pseudocercosporella herpotrichoides; experiment: Activity against wheat eyespot in-vitro (PHI), Example 53(j); format: cell-based; details: 50 ppm, 12 days at 20° C.
Experimental: This test measures the in vitro activity of compounds against the fungus causing wheat eyespot. The test compound is dissolved or suspended in acetone and is added into 4 ml aliquots of half strength Potato Dextrose Broth dispensed in 25-compartment petri dishes to give a final concentration of 50 ppm compound and 2.5% acetone. Each compartment is inoculated with a 6 mm diameter plug of agar/mycelium taken from a 14 day old culture of P. herpotrichoides. Plates are incubated at 20° C. for 12 days until the assessment of mycelial growth. The extent of disease control in all the above tests is expressed as a rating compared with either an untreated control or a diluent-sprayed-control, according to the criteria: […]

[2] = tested on: Pseudocercosporella herpotrichoides; experiment: MIC by serial dilution, Example 55, Pseudocercosporella herpotrichoides; format: cell-based; details: Oculimacula yallundae; microtitre plates, 20° C., 6-8 days
Experimental: as §1, §2, §3

Leptosphaeria nodorum = experiment: Activity against wheat leafspot (LN), Example 53(f); format: in vivo; details: therapeutic foliar spray, 1000 ppm
Experimental: The test is a direct therapeutic one, using a foliar spray. Leaves of wheat plants (cv Norman), at the single leaf stage, are inoculated by spraying with an aqueous suspension containing 1×10^6 spores/ml. The inoculated plants are kept for 24 hours in a high humidity compartment prior to treatment. The plants are sprayed with a solution of the test compound at a dosage of 1000 ppm using an automated sprayline as described under (a). After drying, the plants are kept for 6-8 days at 22° C. and moderate humidity, followed by assessment. Assessment is based on the density of lesions per leaf compared with that on leaves of control plants. The extent of disease control in all the above tests is expressed as a rating compared with either an untreated control or a diluent-sprayed-control, according to the criteria: […]

Puccinia arachidis = experiment: Field pot test with Puccinia arachidis on peanuts; format: in vivo; details: topical, 456 h, 500 μg/ml spray, 1000 l/ha, 19 days after treatment, Abbott formula, read-out: % efficacy Puccinia arachidis
Experimental: 15 seeds of peanuts were sown in pots filled with a soil substrate. When the plants have developed 4 true leaves the fungicides and the test compounds were applied using a hand sprayer. The test compounds were applied at a concentration of 500 μg/ml in a […] containing 10% acetone and 0.05% Triton X 155 in water. The total amount of […] corresponded to 1000 l/ha. Six replicates per treatment were used. 2 Days after treatment the pots were exposed to peanut plants in the field on which the fungus, Puccinia arachidis, had formed sporulating pustules on the leaves. The assessment was carried out 19 days after treatment by estimating the percentage of infected leaf area. The % efficacy was calculated using the Abbott formula.

Cercospora arachidicola = experiment: Field pot test with Cercospora arachidicola on peanuts; format: in vivo; details: Mycosphaerella arachidis, topical, 360 h, 500 μg/ml spray, 1000 l/ha, 15 days after treatment, Abbott formula, read-out: % efficacy Cercospora arachidicola
Experimental: 15 Seeds of peanuts were sown in pots filled with a soil substrate. When the plants have developed 4 true leaves (approx. 12-14 days after seeding) the fungicides and the test compounds were applied using a hand sprayer. The test compounds were applied at a concentration of 500 μg/ml in a […] containing 10% acetone and 0.05% Triton X 155 in water. The total amount of […] corresponded to 1000 l/ha. Six replicates (pots) per treatment were used. 2 days after treatment the pots were exposed to peanut plants in the field on which the fungus, Cercospora arachidicola, had formed sporulating lesions. The assessment was carried out 15 days after treatment by estimating the percentage of infected leaf area. The % efficacy was calculated using the Abbott formula.

Botrytis cinerea [3] = experiment: MIC by serial dilution, Example 55, Botrytis cinerea; format: cell-based; details: microtitre plates, 20° C., 6-8 days
Experimental: as §1, §2, §3

Alternaria solani [4] = experiment: MIC by serial dilution, Example 55, Alternaria solani; format: cell-based; details: microtitre plates, 20° C., 6-8 days
Experimental: as §1, §2, §3

Alternaria solani [5] = experiment: MIC in the serial dilution test, Example 56, Alternaria solani; format: cell-based; details: microtiter serial dilution, 6-12 days
Experimental: (§4) The serial dilution test was carried out using Microtiter test with 24 or 48 wells per plate. The test compounds were used a 1000 μg/ml aqueous stock suspension containing 20% acetone which was then sterile filtered in a 0.2μ filter. The dilution of the sterile fungicide suspension with the nutrient solution and the subsequent pipetting into the different wells was carried out using a TECAN RSP 5000 Robotic Sample Processor. The concentrations tested ranged from 100 μg/ml down to 0.05 μg/ml. 12 Dilution steps were made. The nutrient solution was chosen according to the nutrient requirements of the pathogen. The inoculum was added as a droplet (50 μl) of a spore suspension (5×10^8 /ml) into the wells. After 6-12 days incubation at suitable temperatures, the MIC value was determined by visual estimation. The lowest concentration in the dilution row without mycelial growth was defined as the MIC value.

Rhizoctonia solani = experiment: MIC in the serial dilution test, Example 56, Rhizoctonia solani; format: cell-based; details: microtiter serial dilution, 6-12 days
Experimental: as §4

Botrytis cinerea [6] = experiment: MIC in the serial dilution test, Example 56, Botrytis cinerea; format: cell-based; details: microtiter serial dilution, 6-12 days
Experimental: as §4

Question: Which results are given for `Clc1nc2ncnn2c(Cl)c1-c1ccc(Br)cc1` [Example 19]?
Answer: MIC (Micronectriella nivalis): 6.25 µg/mL (≈ 18.2 µM); MIC (Gaeumannomyces graminis): 0.1 µg/mL (≈ 0.291 µM); Fungicidal Activity PHI (disease control rating) [1]: 2 (greater than 80% disease control); MIC [2]: 12.5 µg/mL (≈ 36.3 µM)

Question: For `COc1cccc(-c2c(Cl)nc3ncnn3c2Cl)c1OC` [Example 21], which “Fungicidal Activity PHI (disease control rating)” value [1] is on record?
Answer: The value was 2 (greater than 80% disease control).

Question: For `Clc1nc2ncnn2c(Cl)c1-c1cccc2ccccc12` [Example 23], which “Fungicidal Activity PHI (disease control rating)” value [1] is on record?
Answer: The value was 1 (about 50-80% disease control).

Question: Which results are given for `CCOc1cccc(-c2c(Cl)nc3ncnn3c2Cl)c1OCC` [Example 24]?
Answer: Fungicidal Activity PHI (disease control rating) [1]: 2 (greater than 80% disease control); Fungicidal Activity LN (disease control rating) (Leptosphaeria nodorum): 1 (about 50-80% disease control)

Question: Which results are given for `Clc1ccc(-c2c(Cl)nc3ncnn3c2Cl)cc1Cl` [Example 25]?
Answer: pest or weed control at 500 µg/mL (Puccinia arachidis): 42%; pest or weed control at 500 µg/mL (Cercospora arachidicola): 25%; Fungicidal Activity LN (disease control rating) (Leptosphaeria nodorum): 1 (about 50-80% disease control)

Question: For `Cc1ccc(-c2c(Cl)nc3ncnn3c2Cl)cc1C` [Example 31], which MIC (Micronectriella nivalis) is on record?
Answer: Its MIC is 3.13 µg/mL (≈ 10.7 µM).

Question: And the MIC (Gaeumannomyces graminis)?
Answer: Its MIC is 0.78 µg/mL (≈ 2.66 µM).

Question: And the MIC [2]?
Answer: Its MIC is 12.5 µg/mL (≈ 42.6 µM).

Question: Which results are given for `CC(C)(C)c1ccc(-c2c(Cl)nc3ncnn3c2Cl)cc1` [Example 36]?
Answer: MIC (Micronectriella nivalis): 0.39 µg/mL (≈ 1.21 µM); MIC (Gaeumannomyces graminis): 0.78 µg/mL (≈ 2.43 µM); MIC [2]: 3.13 µg/mL (≈ 9.74 µM)

Question: Which pest or weed control at 500 µg/mL (Puccinia arachidis) does the source give for `COc1ccc(-c2c(Cl)nc3ncnn3c2Cl)cc1` [Example 38] here?
Answer: The pest or weed control at 500 µg/mL was 42%.

Question: What about the pest or weed control at 500 µg/mL (Cercospora arachidicola) of the same molecule?
Answer: Its pest or weed control at 500 µg/mL is 42%.

Question: How did the MIC (Botrytis cinerea [3]) turn out when `Fc1cccc(Cl)c1-c1c(Br)nc2ncnn2c1Br` [Example 41] was run?
Answer: Its MIC is 25 µg/mL (≈ 61.5 µM).

Question: What about the MIC (Alternaria solani [4]) of the same molecule?
Answer: The MIC was 50 µg/mL (≈ 123 µM).

Question: For `FC(F)(F)c1ccc(-c2c(Br)nc3ncnn3c2Br)cc1` [Example 42], which MIC (Botrytis cinerea [3]) is on record?
Answer: The MIC was greater than 100 µg/mL.

Question: And the MIC (Alternaria solani [4])?
Answer: Its MIC is greater than 100 µg/mL.

Question: For `Fc1cccc(-c2c(Br)nc3ncnn3c2Br)c1` [Example 43], which MIC (Botrytis cinerea [3]) is on record?
Answer: The MIC was greater than 100 µg/mL.

Question: What about the MIC (Alternaria solani [4]) of the same molecule?
Answer: Its MIC is greater than 100 µg/mL.

Question: Which MIC (Botrytis cinerea [3]) does the source give for `FC(F)(F)c1ccccc1-c1c(Br)nc2ncnn2c1Br` [Example 44] here?
Answer: The MIC was greater than 100 µg/mL.

Question: What about the MIC (Alternaria solani [4]) of the same molecule?
Answer: Its MIC is greater than 100 µg/mL.

Question: With `Cc1cccc(C)c1Oc1c(Cl)nc2ncnn2c1Cl` [Example 48] as the molecule, how does the MIC (Alternaria solani [5]) read?
Answer: Its MIC is 25 µg/mL (≈ 80.9 µM).

Question: What about the MIC (Rhizoctonia solani) of the same molecule?
Answer: The MIC was greater than 100 µg/mL.

Question: And the MIC (Botrytis cinerea [6])?
Answer: The MIC was greater than 100 µg/mL.

Question: Which results are given for `Cc1cccc(Oc2c(Cl)nc3ncnn3c2Cl)c1` [Example 49]?
Answer: MIC (Alternaria solani [5]): 25 µg/mL (≈ 84.7 µM); MIC (Rhizoctonia solani): > 100 µg/mL; MIC (Botrytis cinerea [6]): 6.25 µg/mL (≈ 21.2 µM)

Question: `CCOc1c(Cl)nc2ncnn2c1Cl` [Example 50] was tested. Which MIC (Alternaria solani [5]) did it give?
Answer: Its MIC is 12.5 µg/mL (≈ 53.6 µM).

Question: What about the MIC (Rhizoctonia solani) of the same molecule?
Answer: The MIC was 100 µg/mL (≈ 429 µM).

Question: What about the MIC (Botrytis cinerea [6]) of the same molecule?
Answer: Its MIC is 25 µg/mL (≈ 107 µM).

Question: `CC(C)c1c(Cl)nc2ncnn2c1Cl` [Example 51] was tested. Which MIC (Alternaria solani [5]) did it give?
Answer: Its MIC is 12.5 µg/mL (≈ 54.1 µM).

Question: What about the MIC (Rhizoctonia solani) of the same molecule?
Answer: The MIC was 25 µg/mL (≈ 108 µM).

Question: And the MIC (Botrytis cinerea [6])?
Answer: Its MIC is 12.5 µg/mL (≈ 54.1 µM).
